The test system of data set [1] is CWR22R. As to the kind of experiment: Antiproliferative activity against human 22Rv1 cells assessed as inhibition of cell proliferation incubated for 3 days by CCK-8 assay. The data set is classed as functional, cell-based. The note with it: 22Rv1, 72 h.
Data set [2] deals with DU-145. As to the kind of experiment: Antiproliferative activity against human DU-145 cells assessed as cell growth inhibition at 2 to 8 uM incubated for 5 days by microplate reader analysis. It counts as functional, cell-based. The conditions noted are these: dose 2-8 µM, time 5.0 day.
Data set [3] concerns DU-145. As to the kind of experiment: Induction of cell cycle arrest in human DU-145 cells assessed as accumulation of cells at G1 phase at 1 uM incubated for 24 hrs by propidium iodide based flow cytometric analysis (Rvb= 53.46%). The data set is classed as functional. Background: A flow cytometer gives signals particle by particle.
Data set [4] concerns CWR22R. As to the kind of experiment: Induction of cell cycle arrest in human 22Rv1 cells assessed as accumulation of cells at G1 phase at 4 uM incubated for 24 hrs by propidium iodide based flow cytometric analysis (Rvb= 55.28%). It counts as functional.
The subject of data set [5] is CWR22R. As to the kind of experiment: Induction of cell cycle arrest in human 22Rv1 cells assessed as accumulation of cells at G2 phase at 2 uM incubated for 24 hrs by propidium iodide based flow cytometric analysis (Rvb=24.21 %). It counts as functional.
In data set [6] the test system is CWR22R. As to the kind of experiment: Induction of apoptosis in human 22Rv1 cells assessed as increase in p53 level at 2 to 8 uM incubated for 24 hrs by Western blot analysis. It counts as functional, cell-based. The conditions noted are these: dose 2-8 µM.
Data set [7] is described as follows: Metabolic stability in human liver microsomes assessed as half life in presence of NADPH incubated up to 60 mins by LC-MS/MS analysis. It counts as ADME, Microsome. In general terms: Liver microsomes are a subcellular fraction often used to study metabolism.
For data set [8], the system named is DU-145. As to the kind of experiment: Antitumor activity against human DU-145 xenografted in BALB/c nude mouse as upregulation of p53 level in tumor at 100 to 200 mg/kg,po administrated once daily for 21 days by Western blot analysis. The data set is classed as functional, organism-based. The conditions noted are these: dose 100-200 mg/kg, time 21.0 day.

Activity calls are given as the source filed them. The rule behind the calls is not given here.

For one compound, IC50, Activity and half-life results are on record in ChEMBL document CHEMBL5247641, “Discovery of Potent DYRK2 Inhibitors with High Selectivity, Great Solubility, and Excellent Safety Properties for the Treatment of Prostate Cancer” (J Med Chem, 2023).

Consider `Cl.O=C(c1ccc(Nc2ncc(F)c(-c3ccc4scnc4c3)n2)nc1)N1CCNCC1`, for which the 50% inhibitory concentration (IC50) with CWR22R [1] was 2560 nM. Besides, the result in the data set with DU-145 [2], in the data set with CWR22R [6] and with DU-145 [8] was Active. Further, the Activity was determined as 54.77% with DU-145 [3], 66.73% in the data set with CWR22R [4] and 22.88% in the data set with CWR22R [5]. Moreover, the half-life in data set [7] turned out to be 1.3 h.

For orientation: IC50 means the midpoint of a concentration-inhibition curve. One may read the half-life as the time in which the quantity being followed falls by half.
